Where a name gives a salt, the structure may show the parent alone. ± gives the standard error.
Columns and labels:
[1] = test system: 621-102 (TSC2-deficient); experiment: relative viability vs DMSO (fraction); higher = less cytotoxic; settings: serum: 0.1% FBS, 72 h
[2] = test system: 621-102 (TSC2-deficient); experiment: relative viability vs DMSO; higher = less cytotoxic; settings: serum: 10% FBS, 72 h
[3] = test system: 621-103 (TSC2-rescued); experiment: as above; settings: serum: 10% FBS, 72 h
[4] = test system: UMB1949 (TSC2-deficient); experiment: relative viability vs DMSO (fraction); higher = less cytotoxic; settings: serum: 0.1% FBS, 72 h;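 note: renal angiomyolipoma cell lines screened in 384-well plates, viability normalized per plate to DMSO-treated cells, each plate carrying 50 nM rapamycin and 1 µM staurosporine controls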

Compound	relative viability ([1]; 0.0128 nM)	relative viability ([1]; 0.064 nM)	relative viability ([1]; 0.32 nM)	relative viability ([1]; 1.6 nM)	relative viability ([1]; 8 nM)	relative viability ([1]; 40 nM)	relative viability ([1]; 200 nM)	relative viability ([1]; 1000 nM)	relative viability ([1]; 5000 nM)	relative viability ([2]; 0.0001 µM) [%]	relative viability ([2]; 0.001 µM) [%]	relative viability ([2]; 0.01 µM) [%]	relative viability ([2]; 0.1 µM) [%]	relative viability ([2]; 1 µM) [%]	relative viability ([2]; 10 µM) [%]	relative viability ([3]; 0.0001 µM) [%]	relative viability ([3]; 0.001 µM) [%]	relative viability ([3]; 0.01 µM) [%]	relative viability ([3]; 0.1 µM) [%]	relative viability ([3]; 1 µM) [%]	relative viability ([3]; 10 µM) [%]	relative viability ([4]; 0.0128 nM)	relative viability ([4]; 0.064 nM)	relative viability ([4]; 0.32 nM)	relative viability ([4]; 1.6 nM)	relative viability ([4]; 8 nM)	relative viability ([4]; 40 nM)	relative viability ([4]; 200 nM)	relative viability ([4]; 1000 nM)	relative viability ([4]; 5000 nM)
CN(C)C1CCN(C(=O)c2ccc(NC(=O)Nc3ccc(-c4nc(N5CCOCC5)nc(N5CCOCC5)n4)cc3)cc2)CC1 [PKI587]	0.515	0.487	0.471	0.338	0.266	0.196	0.128	0.0333	0.0113																					
CCS(=O)(=O)c1cccc(-c2cc(C(=O)NC3CCN(C)CC3)c(C)c3[nH]c4ncc(C)cc4c23)c1 [TAK-901]										94.4 ± 2	98.3 ± 4.1	90 ± 2.7	75.451 ± 0.045	45.4 ± 2	7.72 ± 0.56	108 ± 2.1	97 ± 2	81.4 ± 1.8	72.5 ± 1.6	28.2 ± 2.3	5.6 ± 0.7	0.561	0.0956	0.0821	0.0562	0.0574	0.0411	0.00479	0.00175	0.0045
CC[C@]1(O)C[C@H]2CN(CCc3c([nH]c4ccccc34)[C@@](C(=O)OC)(c3cc4c(cc3OC)N(C=O)[C@H]3[C@@](O)(C(=O)OC)[C@H](OC(C)=O)[C@]5(CC)C=CCN6CC[C@]43[C@@H]65)C2)C1 [Vincristine Sulfate]										42 ± 1.8	37.1 ± 4.2	41.7 ± 0.87	38.6 ± 0.59	37 ± 0.55	33.5 ± 1.3	48.3 ± 0.14	38 ± 0.93	33.5 ± 0.55	30.4 ± 0.59	27.1 ± 1.3	21.9 ± 0.84									
CC[C@]12C=CCN3CC[C@@]4(c5cc([C@@]6(C(=O)OC)C[C@@H]7C[C@@H](C(C)(F)F)CN(Cc8c6[nH]c6ccccc86)C7)c(OC)cc5N(C)[C@H]4[C@@](O)(C(=O)OC)[C@@H]1OC(C)=O)[C@@H]32 [Vinflunine Tartrate]										91.28 ± 0.35	96.3 ± 1.4	64.68 ± 0.39	44.8 ± 3.1	32 ± 1.2	28.9 ± 0.74	99.3 ± 1.7	93 ± 2.6	66.9 ± 1.8	34.9 ± 1.6	29.8 ± 0.55	23.6 ± 0.65									
CCC1=C[C@@H]2CN(C1)Cc1c([nH]c3ccccc13)[C@@](C(=O)OC)(c1cc3c(cc1OC)N(C)[C@H]1[C@@](O)(C(=O)OC)[C@H](OC(C)=O)[C@]4(CC)C=CCN5CC[C@@]31[C@H]54)C2 [Vinorelbine(Navelbine)]										51.2 ± 1.2	41.4 ± 1.7	44.2 ± 2.1	38.08 ± 0.27	36.28 ± 0.14	27.51 ± 0.032	50.3 ± 2.2	37.9 ± 1.1	39 ± 0.6	31.2 ± 0.92	29.86 ± 0.072	24.6 ± 0.88									
O=C(CCCCCCC(=O)Nc1ccccc1)NO [Vorinostat]										117 ± 3.2	120 ± 2.4	114 ± 2.5	106 ± 1.3	91.54 ± 0.85	63.7 ± 1.4	101 ± 2.2	98.74 ± 0.07	98.14 ± 0.97	97.94 ± 0.86	97.19 ± 0.86	26.6 ± 0.47									
COC(=O)Nc1ccc(-c2nc(N3CCOCC3)c3cnn(C4CCN(C(=O)OC)CC4)c3n2)cc1 [WYE-354]										89.9 ± 1.9	84.2 ± 1.1	79.5 ± 4.5	84.3 ± 5.7	49.3 ± 3.1	61.2 ± 3.3	102 ± 1.1	103.2 ± 0.11	102 ± 1.2	105.7 ± 1	68.1 ± 0.21	74.5 ± 2.2									
COC(=O)Nc1ccc(-c2nc(N3CCOCC3)c3cnn(C4CCN(Cc5cccnc5)CC4)c3n2)cc1 [WYE-687]										97.311 ± 0.046	102 ± 3	99.7 ± 1.4	100 ± 2.7	59.1 ± 2.8	16.2 ± 0.8	113 ± 3.9	115.4 ± 1.1	113 ± 1.5	104 ± 2.3	55.5 ± 0.9	23.1 ± 0.089									
C=CC(=O)Nc1cccc(Oc2nc(Nc3ccc(N4CCN(C)CC4)cc3)ncc2Cl)c1 [WZ3146]										112 ± 3.9	110 ± 3.5	106 ± 2.6	107 ± 3.3	97 ± 2.9	23.8 ± 5.1	103 ± 2	100.6 ± 0.42	100 ± 1.1	101 ± 1.8	79.4 ± 1.4	12.9 ± 0.067									
C=CC(=O)Nc1cccc(Oc2nc(Nc3ccc(N4CCN(C)CC4)cc3OC)ncc2Cl)c1 [WZ4002]										110 ± 1.7	100 ± 6.1	104 ± 4.2	101 ± 3.6	99 ± 2	51.6 ± 2	100.2 ± 0.22	101 ± 1.6	100.1 ± 0.83	101.6 ± 0.99	101 ± 2.2	32.5 ± 1.5									
C=CC(=O)Nc1cccc(Sc2nc(Nc3ccc(N4CCN(C)CC4)cc3)ncc2Cl)c1 [WZ8040]										98.7 ± 3.8	97.6 ± 2.1	99.3 ± 3.3	95.9 ± 1.6	98 ± 3.3	17.7 ± 4.6	100 ± 1.2	100 ± 1.6	99.8 ± 1.3	100 ± 1.5	100.6 ± 0.89	14.9 ± 0.36									
Oc1nc(-c2ccc(C(F)(F)F)cc2)nc2c1CSCC2 [XAV-939]										116 ± 0.67	112 ± 2.7	116 ± 5.5	120 ± 1.9	119.9 ± 0.91	102.42 ± 0.045	99.56 ± 0.24	104 ± 2.7	102 ± 2.3	102 ± 2	102 ± 1.7	102 ± 1.7									
COc1cc2nccc(Oc3ccc(NC(=O)C4(C(=O)Nc5ccc(F)cc5)CC4)cc3)c2cc1OC [XL184]										110.1 ± 0.14	97.1 ± 3.1	98.8 ± 3.1	107 ± 1.7	107 ± 2	99.4 ± 0.21	97.27 ± 0.56	98.1 ± 1.1	96.6 ± 1.1	98.8 ± 2.2	98.7 ± 1.5	81.9 ± 4.7									
COC(=O)[C@@H]1[C@H]2C[C@H]3c4[nH]c5ccccc5c4CCN3C[C@@H]2CC[C@@H]1O [Yohimbine HCl]										106 ± 2.6	104 ± 1.2	104 ± 2.2	100.9 ± 0.15	100 ± 5.2	100 ± 2.6	104 ± 3.8	105 ± 3.1	105 ± 3.5	97 ± 3	99.4 ± 4.7	96.5 ± 3.8									
FC(F)c1nc2ccccc2n1-c1nc(N2CCOCC2)nc(N2CCOCC2)n1 [ZSTK474]										88.8 ± 4.7	94.9 ± 1.6	89.77 ± 0.68	95.7 ± 2	91.2 ± 3.4	52.1 ± 1.8	101 ± 2.4	97 ± 3.6	103.8 ± 0.79	105.3 ± 0.49	96.3 ± 2.2	49.6 ± 1.3									
Nc1ccn([C@H]2CC[C@@H](CO)O2)c(=O)n1 [Zalcitabine]										92.2 ± 0.98	99.9 ± 1.3	94.1 ± 2.3	103.3 ± 0.81	102 ± 3.1	93.26 ± 0.69	90.4 ± 5.7	95.48 ± 0.79	105 ± 1.1	105 ± 4.4	100.4 ± 0.83	102 ± 1.8									
COc1nc(C)cnc1NS(=O)(=O)c1cccnc1-c1ccc(-c2nnco2)cc1 [Zibotentan (ZD4054)]										118 ± 2.6	100 ± 3.1	109.9 ± 0.58	114 ± 2.4	105 ± 3.6	120 ± 1.6	103.31 ± 0.00057	99.8 ± 1.5	100.2 ± 0.14	100.5 ± 0.75	101 ± 1	102.5 ± 0.2									

From the supplement of paper PMC8960247
